Experiments:
[1] = tested on: mast cell deficient mice (WBB6F1-W/W^V) and normal control mice (WBB6F1-+/+); assay: Scratch bouts of mice after 10% sodium laurate application (Sample Experiment 2); format: in vivo, mouse; details: 10% SL aqueous solution 50 μL single application, 2 hrs. after application, both mast cell deficient and normal control mice
Procedure: Male mast cell deficient mice at ages of 7 to 8 weeks (WBB6F1-W/W^V mouse), purchased from Japan SLC, and normal control mice that are wild mice at ages of 7 to 8 weeks (WBB6F1-+/+mouse) were used. They were given solid feed under free water supply and subjected to preliminary rearing for 7 days or longer under a constant temperature/constant humidity environment with a temperature of 22±2° C., and a humidity of 55±10% before they were used in the test. The mice for use were subjected to the test at least 3 days after shearing/depilating of the rostral back. […] That is, a single mouse was put in each of the 4 divided sections of an acrylic box (13×9×35 cm) to be acclimated for at least 1 hr., and they were video recorded in an environment without any person to record their action. Then, by watching the video, the number of scratch bouts against the rostral back by the hind leg was counted. A series of scratching movements (movements that include scratching the rostal back, where the solution is applied, with the hind leg, then dropping the hind leg to the ground) was counted as 1 count, and the number of times scratching was performed in 60 mins. was counted by visual observation. […]

[2] = tested on: histamine and active HDC (53 kDa) in mouse epidermis and dermis; assay: Histamine amount and HDC activation in ICR mouse skin after 10% sodium laurate (Sample Experiment 3); format: in vivo; details: ICR mice
Procedure: Male ICR mice at ages of 7 to 8 weeks, purchased from Japan SLC, were used. They were given solid feed under free water supply and subjected to preliminary rearing for 7 days or longer under a constant temperature/constant humidity environment with a temperature of 22±2° C., and a humidity of 55±10% before they were used in the test. The mice for use were subjected to the test at least 3 days after shearing/depilating of the rostral back. A 10% aqueous solution obtained by dissolving SL in distilled water was applied as a stimulating substance against the skin at 50 μL to the sheared/depilated rostral back of the mice mentioned above. Distilled water was applied to the solvent control group (Vehicle). Note concerning FIG. 5 and FIG. 6 to be described later that the mice that were not treated with the above SL aqueous solution or distilled water are called “NT (not treated).” The amount of histamine in skin was measured before applying a surfactant, 2 hrs. after application, and 24 hrs. after application (the time of application was set to 0 hr.). Skins were collected while the mice were under anesthesia after perfusion with a phosphate buffer solution (PBS) using the cardiac blood circulation system (punched out with a biopsy punch in a circular shape of a diameter of 18 mm). The amounts of histamine in the collected skins were measured. After the collected skins were immersed in PBS at 60° C. for 30 secs., they were separated into the epidermis and the dermis. Then, the amounts of histamine in the epidermis and the dermis were measured using the measurement kit. To measure the amount of histamine, tissues of both the epidermis and the dermis were pulverized to create tissue suspensions, which were subjected to centrifugation, then supernatants were collected to measure the amounts of histamine in the supernatants.

[3] = tested on: ICR mice; assay: Scratch bouts of ICR mice after 10% SDS application (Sample Experiment 1-1); format: in vivo, mouse; details: ICR mice of 10% SDS group at Day 3, TRF 30 mg/kg oral, 30 mins. before observation, 60 mins. count
Procedure: The present Sample Experiment was conducted using ICR mice, and an anionic surfactant, namely, sodium dodecyl sulfate (SDS), was used as a stimulating substance to analyze the scratch bouts of mice. After SDS had been applied, terfenadine (TRF) was administered as an antihistamine to determine its effect on scratch bouts.
Male ICR mice at ages of 7 to 8 weeks, purchased from Japan SLC, were used. The mice were given solid feed under free water supply and subjected to preliminary rearing for 7 days or longer under a constant temperature/constant humidity environment with a temperature of 22±2° C., and a humidity of 55±10% before they were used in the test. The mice for use were used in the test at least 3 days after shearing/depilating the rostral back of each mouse. […]
The scratch bouts of mice were performed in view of the Kuraishi et al. report. That is, a single mouse was put in each chamber of the 4 divided sections in an acrylic box (13×9×35 cm) to be acclimated for at least an hour, and they were video recorded in an environment without any person for at least an hour a day from the day of applying the above 10% SDS aqueous solution (Day 0) to the 4th day after application (Day 4) to record their movement. Then, by watching the video, the number of scratch bouts against the rostral back by the hind leg was counted. […]

[4] = 2 hrs. after 10% SL application
[5] = 24 hrs. after 10% SL application

SMILES | scratch bouts of mice (number in 60 mins.) after stimulating substance [1] | active HDC (53 kDa) in mouse epidermis [2, 4] | histamine level in the epidermis [2, 4] | active HDC (53 kDa) in mouse epidermis [2, 5] | histamine level in the epidermis [2, 5] | histamine level of the dermis ([2]; before, 2 hrs. and 24 hrs. after 10% SL application) | scratch bouts of SDS-treated mice after TRF, After vs Before [3]
CCCCCCCCCCCC(=O)[O-].[Na+] [SL, sodium laurate] | clearly increased | increased significantly | increased | returned to the pre-application level | returned to the pre-application level | no substantial change was observed | 
CC(C)(C)c1ccc(C(O)CCCN2CCC(C(O)(c3ccccc3)c3ccccc3)CC2)cc1 (stereo not shown) [TRF, terfenadine] |  |  |  |  |  |  | effectively suppressed

Reference: patent US20150335558A1, “NERVE GROWTH INHIBITOR, CUTANEOUS-SENSORY-IRRITATION INHIBITOR, AND MARKER FOR CUTANEOUS-SENSORY-IRRITATION DETECTION” (HOYU CO., LTD., priority 2012, published 2015)
